Data: patent EP2012764B1, “PHARMACEUTICAL COMBINATION COMPRISING 3-(3-DIMETHYLAMINO-1-ETHYL-2-METHYL-PROPYL) -PHENOL AND PARACETAMOL” (Grünenthal GmbH, priority 2006, dated 2007)

System: inflammatory pain
Assay: Randall-Selitto test in rats (carrageenin-induced paw oedema, pressure at vocalisation, %MPE; isobolographic analysis)
Type: in vivo, rat
Experimental: The weight ratios of the components (a) and (b) that will lead to a supra-additive effect (synergistic effect) of the inventive pharmaceutical composition may be determined via the test of Randall and Selitto as described in Arch. Int. Pharmacodyn., 1957, 111: 409 to 419, which is a model for inflammatory pain. The respective part of the literature is hereby incorporated by reference and forms part of the present disclosure.
By means of injection of 0.1 ml of Carrageenin-suspension ventrally into a hind paw of a rat an oedema is induced, on which pain is generated 4 hours later by continuously increasing pressure with a stamp (2 mm tip diameter). The antinociceptive and antihyperalgesic activity of the tested substance is determined at different points in time after administration of the substance. The measured value to be determined and at the same time also the end point of the pain test is the pressure at which the vocalisation reaction of the rat occurs. The percentage maximum possible effect (%MPE) is calculated. The maximum pressure of the stamp is 250 g. The group size is n = 10.
The interactions studies presented herein were performed using equieffective doses of the two components, calculated from the ratio of the respective ED50 values of the components if administered alone.
The application route was intravenous (i.v.) for (1R,2R)-3-(3-Dimethylamino-1-ethyl-2-methyl-propyl)-phenol (A) and intraperitoneal (i.p.) for Paracetamol. […] According to their respective timepoint of peak effect, (1R,2R)-3-(3-Dimethylamino-1-ethyl-2-methyl-propyl)-phenol was applied 15 min and Paracetamol 120 min before timepoint of measurement of the interaction-experiments (i. e. Paracetamol was applied 105 min before (1R,2R)-3-(3-Dimethylamino-1-ethyl-2-methyl-propyl)-phenol, respectively). Thus, the time point of ED50 calculation of the combination corresponds to the timepoint of the peak effect of the respective compound.

CC[C@@H](c1cccc(O)c1)[C@@H](C)CN(C)C [A, (1R,2R)-3-(3-Dimethylamino-1-ethyl-2-methyl-propyl)-phenol]
timepoint of peak effect (A alone, i.v., timepoint of first measurement): 15 min p. appl.

CC(=O)Nc1ccc(O)cc1 [Paracetamol]
timepoint of peak effect (Paracetamol alone, i.p.): 120 min p. appl. | ED50 (confidence interval) (Paracetamol alone, i.p., 120 min p. appl. (peak effect), rat, n = 10, 120 min): 189,9 (181,3-198,4) mg/kg | ED50 (Rattus norvegicus, ip, 2 h, Paracetamol alone, i.p., 120 min p. appl. (peak effect), rat, n = 10, read-out: ED50 (confidence interval)): 190 mg/kg
